Reference: ChEMBL document CHEMBL1221220, “Transport and signaling via the amino acid binding site of the yeast Gap1 amino acid transceptor” (Nat Chem Biol, 2009)
Positions count from the first letter of the chain named. Active and inactive are the calls of the source. No cut-off for these calls is given here.

What was measured:
[1] = system: T1, General amino-acid permease GAP1 (Saccharomyces cerevisiae), P19145 [T400C]; experiment: Induction of yeast Gap1 T400C mutant-mediated trehalose activation at 10 mM
T1 sequence (whole entry): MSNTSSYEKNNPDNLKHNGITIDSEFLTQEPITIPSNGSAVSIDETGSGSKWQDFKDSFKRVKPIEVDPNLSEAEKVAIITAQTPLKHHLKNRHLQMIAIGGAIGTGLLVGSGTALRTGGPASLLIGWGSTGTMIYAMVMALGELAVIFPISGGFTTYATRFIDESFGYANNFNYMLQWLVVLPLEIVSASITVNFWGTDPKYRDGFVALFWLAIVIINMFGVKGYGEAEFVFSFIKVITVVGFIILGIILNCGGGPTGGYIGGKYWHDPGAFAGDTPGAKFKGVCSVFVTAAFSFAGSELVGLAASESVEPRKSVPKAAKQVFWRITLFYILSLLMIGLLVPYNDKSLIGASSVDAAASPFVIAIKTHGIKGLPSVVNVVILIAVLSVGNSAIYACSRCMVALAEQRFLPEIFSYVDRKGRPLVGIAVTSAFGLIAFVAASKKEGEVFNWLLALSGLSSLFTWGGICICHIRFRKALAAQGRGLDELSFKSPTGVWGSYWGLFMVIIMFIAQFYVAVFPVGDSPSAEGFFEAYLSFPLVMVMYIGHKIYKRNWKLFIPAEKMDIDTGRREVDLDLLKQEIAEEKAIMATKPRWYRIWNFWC

[2] = system: T2, General amino-acid permease GAP1 (Saccharomyces cerevisiae), P19145 [L383C]; experiment: Induction of yeast Gap1 L383C mutant-mediated trehalose activation at 10 mM
T2 sequence (whole entry): T1 sequence (whole entry) with L383C, C400T

[3] = system: T3, General amino-acid permease GAP1 (Saccharomyces cerevisiae), P19145 [A396C]; experiment: Induction of yeast Gap1 A396C mutant-mediated trehalose activation at 10 mM
T3 sequence (whole entry): T1 sequence (whole entry) with A396C, C400T

[4] = system: T4, General amino-acid permease GAP1 (Saccharomyces cerevisiae), P19145 [R399C]; experiment: Induction of yeast Gap1 R399C mutant-mediated trehalose activation at 10 mM
T4 sequence (whole entry): T1 sequence (whole entry) with R399C, C400T

- Activity [1]: inactive
- Activity [2]: inactive
- Activity [3]: inactive
- Activity [4]: inactive
Compound: NC(=O)NCCC[C@H](N)C(=O)O
